We go through 26 compounds from patent US20230150981A1, “N-HETEROARYLALKYL-2-(HETEROCYCLYL AND HETEROCYCLYLMETHYL) ACETAMIDE DERIVATIVES AS SSTR4 AGONISTS” (Takeda Pharmaceutical Compnay Limited, priority 2020, published 2023).

For experiment [1], the target named is T1, SSTR4 (Homo sapiens, UniProt P31391).
T1 construct: host or cells: CHO-K1
Description: Inhibition of forskolin stimulated cAMP in CHO-K1 cells overexpressing SSTR4. Type of experiment: cell-based. To be noted: read-out: SSTR4 Activity pEC50 (converted). A digest of the protocol: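 CHO-K1 cells overexpressing SSTR4 treated 30 min at room temperature with compound in Krebs Ringer buffer containing 0.5% BSA, 300 μM IBMX and 350 nM forskolin. Intracellular cAMP measured by HTRF LANCE Ultra (665/615 nm); pEC50 values reported.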

The target in experiment [2] is T1, SSTR4. The experiment is described as follows: SSTR4 I-125 somatostatin competition binding assay (CHO-K1 membranes). Conditions: competition with I-125 somatostatin, membranes from CHO-K1 overexpressing SSTR4; read-out: SSTR4 Binding pIC50 (converted). As for the experimental part:
SSTR4 I-125 Somatostatin Competition Binding Assay
Membranes from CHO-K1 cells overexpressing SSTR4 are purchased from Perkin Elmer (catalog number ES-524-M400UA). Test compounds are suspended in DMSO and then diluted in assay buffer (25 mM HEPES pH 7.4, 10 mM MgCl2, 1 mM CaCl2), 0.5% BSA) plus 0.2 nM I-125 labeled somatostatin (Perkin Elmer catalog number NEX389). Fifty μL of compound/I-125 somatostatin in assay buffer are added per well to 96-well poly-propylene plate. Then 1 μg of SSTR4 membranes in 50 μL assay buffer are added per well. The Plate is incubated for 60 minutes at room temperature. FilterMat A filters (Perkin Elmer catalog number 1450-421) are pre-soaked in 0.5% PEI (Sigma catalog number P3143). The contents of the assay plate are transferred to filters with a TomTech harvester and washed 5 times with 20 mM HEPES, 100 mM NaCl. The filters are dried in a microwave oven then transferred to sample bag containing a scintillator sheet (Perkin Elmer catalog number 1450-441). The scintillator sheets are melted to filters using a heat block. The filters are then read in a MicroBeta scintillation counter. Binding Ki curves are generated using Activity Base for Screening Data Management and the results are reported as pIC50.

For a further experiment, the target named is T2, SSTR1 (Homo sapiens, UniProt P30872).
T2 construct: purchased Perkin Elmer ES-520-M400UA; host or cells: CHO-K1 membranes
The experiment is described as follows: SSTR1 I-125 somatostatin competition binding assay for selectivity versus SSTR1 (CHO-K1 membranes). Conditions: competition with I-125 somatostatin, membranes from CHO-K1 overexpressing SSTR1; read-out: SSTR1 Binding pIC50 (converted). As for the experimental part:
SSTR1 I-125 Somatostatin Competition Binding Assay for Selectivity Versus SSTR1
Membranes from CHO-K1 cells overexpressing SSTR1 are purchased from Perkin Elmer (catalog number ES-520-M400UA). Test compounds are suspended in DMSO and then diluted in assay buffer (25 mM HEPES pH 7.4, 10 mM MgCl2, 1 mM CaCl2), 0.5% BSA) plus 0.4 nM I-125 labeled somatostatin (Perkin Elmer catalog number NEX389). Fifty μL of compound/I-125 somatostatin in assay buffer are added per well to 96-well poly-propylene plate. Then 10 μg of SSTR1 membranes in 50 μL assay buffer are added per well. The plate is incubated for 60 minutes at room temperature. FilterMat A filters (Perkin Elmer catalog number 1450-421) are pre-soaked in 0.5% PEI (Sigma catalog number P3143). The contents of the assay plate are transferred to filters with a TomTech harvester and washed 5 times with 20 mM HEPES, 100 mM NaCl. The filters are dried in a microwave oven then transferred to sample bag containing a scintillator sheet (Perkin Elmer catalog number 1450-441). The scintillator sheets are melted to the filters using a heat block. The filters are then read in a MicroBeta scintillation counter. Binding Ki curves are generated using Activity Base for Screening Data Management and the results are reported as pIC50.

T1 sequence (P31391 whole entry): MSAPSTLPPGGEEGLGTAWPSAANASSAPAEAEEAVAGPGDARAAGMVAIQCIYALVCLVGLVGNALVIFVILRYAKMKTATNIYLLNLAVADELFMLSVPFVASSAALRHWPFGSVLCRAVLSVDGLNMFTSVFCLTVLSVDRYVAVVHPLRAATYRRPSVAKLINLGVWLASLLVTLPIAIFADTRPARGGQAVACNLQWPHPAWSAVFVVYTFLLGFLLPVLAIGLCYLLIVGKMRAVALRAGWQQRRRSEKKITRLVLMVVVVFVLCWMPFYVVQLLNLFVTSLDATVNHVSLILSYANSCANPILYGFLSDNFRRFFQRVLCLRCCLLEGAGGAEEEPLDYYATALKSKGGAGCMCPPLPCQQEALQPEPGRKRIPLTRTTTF
T2 sequence (P30872 whole entry): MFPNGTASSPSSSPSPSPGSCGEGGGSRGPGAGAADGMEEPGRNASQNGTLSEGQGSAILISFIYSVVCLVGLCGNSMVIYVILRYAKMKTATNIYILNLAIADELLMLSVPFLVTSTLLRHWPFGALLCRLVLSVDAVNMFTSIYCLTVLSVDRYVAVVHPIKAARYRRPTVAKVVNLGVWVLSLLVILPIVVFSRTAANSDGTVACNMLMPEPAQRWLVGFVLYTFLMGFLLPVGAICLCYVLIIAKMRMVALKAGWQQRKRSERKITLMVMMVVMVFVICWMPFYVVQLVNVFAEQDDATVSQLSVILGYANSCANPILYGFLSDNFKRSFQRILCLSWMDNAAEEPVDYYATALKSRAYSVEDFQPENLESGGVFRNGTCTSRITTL

With `C[C@H](CN1CCC1)C(=O)N[C@@H](CF)c1ccccc1` (single isomer, unassigned) [Example 205], the EC50 at SSTR4 [1] is 1.26 nM. Also, the figures for the IC50 at SSTR4 [2] and at SSTR1 were 25.1 nM and 2510 nM, respectively.

Turning to `Cc1ccc(C(NC(=O)CCN2CCC2)C(F)(F)F)cc1` (single isomer, unassigned) [Example 207], on SSTR4 [1], the EC50 was 1.58 nM. The IC50 was 39.8 nM on SSTR4 [2] and 5010 nM at SSTR1.

For `O=C(CCN1CCC1)NC(c1cccc(F)c1)C(F)(F)F` (single isomer, unassigned) [Example 208], the EC50 at SSTR4 [1] was 3.16 nM. Further, the IC50 was 39.8 nM on SSTR4 [2] and 15800 nM at SSTR1.

Regarding `O=C(CCN1CCC1)NC(c1ccccc1F)C(F)(F)F` (single isomer, unassigned) [Example 209], the EC50 at SSTR4 [1] was 1.26 nM. In addition, the IC50 was 126 nM on SSTR4 [2] and 20000 nM on SSTR1.

With `Cc1ccccc1C(NC(=O)CCN1CCC1)C(F)(F)F` (single isomer, unassigned) [Example 210], on SSTR4 [1], the EC50 is 10 nM. In addition, the IC50 on SSTR4 [2] was 31.6 nM; at SSTR1, 3980 nM.

For `Cc1cccc2c(C(C)(C)NC(=O)CC3CCCN3C)nn(C)c12` (stereo not drawn) [Example 1, N-(2-(1,7-dimethyl-1H-indazol-3-yl)propan-2-yl)-2-(1-methylpyrrolidin-2-yl)acetamide], at SSTR4 [1], the EC50 was 6.31 nM. Besides, the IC50 at SSTR4 [2] is 63.1 nM; at SSTR1 it was 10000 nM.

As for `CN1CCCCC1CC(=O)NC(C)(C)c1nn(C)c2ccccc12` (stereo not drawn) [Example 2, N-(2-(1-methyl-1H-indazol-3-yl)propan-2-yl)-2-(1-methylpiperidin-2-yl)acetamide], on SSTR4 [1], the EC50 was 6.31 nM. Moreover, the IC50 is 63.1 nM on SSTR4 [2] and 3160 nM on SSTR1.

On to `CN1CCC[C@@H]1CC(=O)NC(C)(C)c1nn(C)c2ccccc12` [Example 3, (R)-N-(2-(1-methyl-1H-indazol-3-yl)propan-2-yl)-2-(1-methylpyrrolidin-2-yl)acetamide], for which the EC50 on SSTR4 [1] is 25.1 nM. Moreover, the IC50 on SSTR4 [2] was 200 nM; at SSTR1, 5010 nM.

Consider `CN1CCC[C@H]1CC(=O)NC(C)(C)c1nn(C)c2ccccc12` [Example 4, (S)-N-(2-(1-methyl-1H-indazol-3-yl)propan-2-yl)-2-(1-methylpyrrolidin-2-yl)acetamide], for which the EC50 at SSTR4 [1] is 25.1 nM. The IC50 was 158 nM on SSTR4 [2] and 10000 nM on SSTR1.

On to `CC(C)(NC(=O)CCN1CCCC1)c1nccc2ccccc12` [Example 5, N-(2-(isoquinolin-1-yl)propan-2-yl)-3-(pyrrolidin-1-yl)propanamide], for which the EC50 at SSTR4 [1] is 3.98 nM. The IC50 is 50.1 nM on SSTR4 [2] and 5010 nM at SSTR1.

For the compound `CN1CCCCC1CC(=O)NC(C)(C)c1nccc2ccccc12` (stereo not drawn) [Example 6, N-(2-(isoquinolin-1-yl)propan-2-yl)-2-(1-methylpiperidin-2-yl)acetamide], on SSTR4 [1], the EC50 was 1.58 nM. The figures for the IC50 at SSTR4 [2] and at SSTR1 were 25.1 nM and 2510 nM, respectively.

Turning to `Cc1cccc2c(C(C)(C)NC(=O)CC3CCCCN3C)nccc12` (stereo not drawn) [Example 7, N-(2-(5-methylisoquinolin-1-yl)propan-2-yl)-2-(1-methylpiperidin-2-yl)acetamide], the EC50 at SSTR4 [1] was 3.98 nM. Moreover, the IC50 at SSTR4 [2] was 79.4 nM; on SSTR1 it was 5010 nM.

For the compound `CN1CCCCC1CC(=O)NC(C)(C)c1cccc(Cl)c1` (stereo not drawn) [Example 11, N-(2-(3-chlorophenyl)propan-2-yl)-2-(1-methylpiperidin-2-yl)acetamide], the EC50 at SSTR4 [1] was 39.8 nM. Besides, the figures for the IC50 on SSTR4 [2] and at SSTR1 were 200 nM and 25100 nM, respectively.

In the case of `CN1CCC[C@@H]1CC(=O)NC(C)(C)c1nccc2ccccc12` [Example 16, (R)-N-(2-(isoquinolin-1-yl)propan-2-yl)-2-(1-methylpyrrolidin-2-yl)acetamide], the EC50 at SSTR4 [1] is 12.6 nM. Moreover, the IC50 was 100 nM on SSTR4 [2] and 3160 nM on SSTR1.

Regarding `Cc1cccc2c(C(C)(C)NC(=O)C[C@H]3CCCN3C)nccc12` [Example 17, (R)-N-(2-(5-methylisoquinolin-1-yl)propan-2-yl)-2-(1-methylpyrrolidin-2-yl)acetamide], the EC50 at SSTR4 [1] is 3.98 nM. Moreover, the IC50 at SSTR4 [2] was 100 nM; at SSTR1, 5010 nM.

Regarding `Cc1cccc2c(C(C)(C)NC(=O)C[C@@H]3CCCN3C)nccc12` [Example 18, (S)-N-(2-(5-methylisoquinolin-1-yl)propan-2-yl)-2-(1-methylpyrrolidin-2-yl)acetamide], the EC50 on SSTR4 [1] is 7.94 nM. The IC50 at SSTR4 [2] is 100 nM; on SSTR1 it was 7940 nM.

For `Cc1cccc2c(C(C)(C)NC(=O)C[C@H]3CCCN3C)noc12` [Example 19, (R)-N-(2-(7-methylbenzo[d]isoxazol-3-yl)propan-2-yl)-2-(1-methylpyrrolidin-2-yl)acetamide], at SSTR4 [1], the EC50 is 12.6 nM. Moreover, the figures for the IC50 on SSTR4 [2] and on SSTR1 were 126 nM and 10000 nM, respectively.

Regarding `Cc1cccc2c(C(C)(C)NC(=O)C[C@@H]3CCCN3C)noc12` [Example 21, (S)-N-(2-(7-methylbenzo[d]isoxazol-3-yl)propan-2-yl)-2-(1-methylpyrrolidin-2-yl)acetamide], the EC50 at SSTR4 [1] is 12.6 nM. Besides, the IC50 at SSTR4 [2] was 79.4 nM; at SSTR1 it was 25100 nM.

For `Cc1cc2ccccc2c(C(C)(C)NC(=O)C[C@@H]2CCCN2C)n1` [Example 22, (S)-N-(2-(3-methylisoquinolin-1-yl)propan-2-yl)-2-(1-methylpyrrolidin-2-yl)acetamide], the EC50 on SSTR4 [1] was 7.94 nM. Also, the IC50 was 63.1 nM on SSTR4 [2] and 2510 nM at SSTR1.

In the case of `CC(C)(NC(=O)C[C@@H]1CCCN1)c1nccc2ccccc12` [Example 23, (S)-N-(2-(isoquinolin-1-yl)propan-2-yl)-2-(pyrrolidin-2-yl)acetamide], the EC50 at SSTR4 [1] is 25.1 nM. The IC50 at SSTR4 [2] is 1000 nM; on SSTR1, 7940 nM.

On to `CN1CCC[C@H]1CC(=O)NC(C)(C)c1nccc2ccccc12` [Example 24, (S)-N-(2-(isoquinolin-1-yl)propan-2-yl)-2-(1-methylpyrrolidin-2-yl)acetamide], for which the EC50 at SSTR4 [1] is 12.6 nM. In addition, the IC50 is 200 nM on SSTR4 [2] and 6310 nM on SSTR1.

Take `CCN1CCCC1CC(=O)NC(C)(C)c1nccc2occc12` (stereo not drawn) [Example 27, 2-(1-ethylpyrrolidin-2-yl)-N-(2-(furo[3,2-c]pyridin-4-yl)propan-2-yl)acetamide]: the EC50 on SSTR4 [1] is 31.6 nM. The IC50 on SSTR4 [2] was 501 nM; on SSTR1, more than 50100 nM.

Take `CN1CCCC1CC(=O)NC(C)(C)COc1ncccc1C(F)(F)F` (stereo not drawn) [Example 28, N-(2-methyl-1-((3-(trifluoromethyl)pyridin-2-yl)oxy)propan-2-yl)-2-(1-methylpyrrolidin-2-yl)acetamide]: the EC50 at SSTR4 [1] was 20 nM. Moreover, the IC50 is 251 nM on SSTR4 [2] and 15800 nM at SSTR1.

Turning to `CN1CCCCC1CC(=O)NC(C)(C)c1ccc(Cl)cc1` (stereo not drawn) [Example 30, N-(2-(4-chlorophenyl)propan-2-yl)-2-(1-methylpiperidin-2-yl)acetamide], the EC50 at SSTR4 [1] was 31.6 nM. Further, the IC50 at SSTR4 [2] was 126 nM; on SSTR1 it was 31600 nM.

Regarding `CN1CCC[C@H]1CC(=O)NC(C)(C)c1nccc2occc12` [Example 34, (S)-N-(2-(furo[3,2-c]pyridin-4-yl)propan-2-yl)-2-(1-methylpyrrolidin-2-yl)acetamide], on SSTR4 [1], the EC50 is 100 nM. Moreover, the IC50 on SSTR4 [2] is 316 nM; at SSTR1 it was more than 50100 nM.

On to `CN1CCC[C@H]1CC(=O)NC(C)(C)c1ccc(Cl)cc1` [Example 35, (S)-N-(2-(4-chlorophenyl)propan-2-yl)-2-(1-methylpyrrolidin-2-yl)acetamide], for which the EC50 on SSTR4 [1] was 63.1 nM. Also, the values for the IC50 on SSTR4 [2] and on SSTR1 were 316 nM and 12600 nM, respectively.
